This is an account of results in patent US20240166703A1, “ANTI-INFLAMMATORY PEPTIDE AND METHOD OF USE THEREOF” (The Regents of the University of California, priority 2021, published 2024).

“Also recorded” adds a separate entry of the source.

For assay [1], the system named is NF-κB DNA binding activity in HeLa cells. The assay can be described thus: EMSA of NF-κB DNA binding, nuclear extracts of TNF-α-treated HeLa cells. The conditions noted are these: increasing concentrations 10-50 μM; TNF-α-treated HeLa cells. Format: cell-based, human. Here is the method:
(§1) To prepare nuclear and cytoplasmic protein extracts, HeLa, MEF, and RAW 264.7 cells were lysed in buffer containing 4.3 mM Na2HPO4, 1.47 mM KH2PO4 pH 7.4, 137 mM NaCl, 2.7 mM KCl, 1 mM DTT, 0.05% (v/v) NP-40, and 1×protease inhibitor cocktail for 10 minutes on ice and spun at 3,000 rpm at 4° C. for 10 minutes. The supernatant containing the cytoplasmic fraction was quantified by Bio-Rad protein assay to determine the total amount of protein. Pellets were resuspended in nuclear extraction buffer (25 mM Tris-HCl pH 7.5, 420 mM NaCl, 10% glycerol, 0.2 mM EDTA, 1 mM DTT, 0.5 mM PMSF, 1×protease inhibitor cocktail) once and then subjected to three lysis cycles (freeze at −80° C. and thaw at 37° C.). Finally, samples were centrifuged at 13,000 rpm at 4° C. for 20 minutes, and supernatants containing the soluble nuclear fraction were measured by the Bio-Rad protein assay to determine the total amount of protein. Nuclear and cytoplasmic extracts were aliquoted and kept at −80° C.
(§2) HeLa, MEF, RAW 264.7 cells were cultured in Dulbecco's MEM containing 10% fetal bovine […] supplemented with penicillin and streptomycin, at 37° C. in a humidity incubator with 5% CO2. RAW 264.7 cells were seeded and allowed to adhere for 24 hours then treated with NEMO^ActPep or NEMO^ActPep 6G at different concentrations 60 min before the LPS challenge (100 ng/ml). After 2 hours, nuclear and cytoplasmic extracts were collected. HeLa and MEF cells seeded for 24 hours then treated with NEMO^ActPep or NEMO^ActPep 6G at different concentrations 60 min before the TNF-α challenge (10 ng/ml) for 15 minutes and then nuclear and cytoplasmic extracts were collected. MEF cells were treated with NEMO^ActPep or NEMO^ActPep 6G at different concentrations 1 hour before the LTβR challenge (300 ng/ml). After 24 hours whole cell extracts were collected and aliquoted and kept at −80° C. for further experiments.
(§3) Electrophoretic mobility shift assay (EMSA) was performed using recombinant full length NF-κB ReIA homodimer as a positive control as previously described (45). […] The amount of protein in lysates was quantified by Bio-Rad protein assay. EMSA analysis with quantitative densitometry and signal intensity was quantitated using ImageJ software. […]
It is intrigued by the ability of such a small segment (residues 384-389) of human NEMO to mediate interaction with and promote activation loop phosphorylation of IKK2. […] NF-κB activity was measured by EMSA using nuclear extracts and radiolabeled KB DNA from the immunoglobulin kappa light chain gene (Ig-κB) as the probe (FIG. 5A).
(Mobility shift assays separate free from complexed probe on a gel.)

The test system of assay [2] is canonical NF-κB signaling through IKK2 in HeLa cells. Nature of the assay: Western blot of canonical NF-κB signaling in TNF-α-treated HeLa cells. Format: cell-based, human. The conditions noted are these: increasing peptide concentrations. Here is the method: as §1, §2
(§4) Equivalent amounts of protein from cell extracts was separated by SDS-PAGE and transferred to polyvinylidene fluoride (PVDF) membranes (Millipore, Bedford, MA, USA). The membrane was blocked with 5% bovine serum albumin (BSA) for 1 hour at room temperature and then the membrane was incubated with the primary antibodies overnight at 4° C. Antibodies for IKK2, His, HA, Myc, GST, Ubiquitin, IκBα, phospho-IKK2, p65/ReIA, p84, γ-Actin, p100/52, phospho-ERK, phospho-JNK, phospho-p38, ERK, JNK, and p38 were used for detecting multiple specific protein targets. After binding of an appropriate secondary antibody coupled to horseradish peroxidase, the immunoreactive bands were visualized by enhanced chemiluminescence substrate.
The inhibitory effects of TAT-NEMO^ActPep were further verified on canonical NF-κB signaling in HeLa cells by assessing IKK2 activation loop phosphorylation, IκBα degradation, and NF-κB ReIA/p65 subunit subcellular localization. Consistent with the observations of decreased nuclear NF-κB DNA binding activity by EMSA, treatment with TAT-NEMO^ActPep blocked IKK2 phosphorylation, IκBα proteolysis, and nuclear translocation of ReIA (FIG. 5B).
In general terms: In western blotting, separated proteins are transferred to a membrane and probed.

For assay [3], the system named is NF-κB DNA binding in RAW 264.7 murine macrophage cells. Nature of the assay: EMSA of NF-κB DNA binding, nuclear lysates of LPS-treated RAW 264.7 cells. Format: cell-based. The settings on record: RAW 264.7 cells, 100 ng/mL LPS for 2 hours. The procedure:
as §1
HeLa, MEF, RAW 264.7 cells were cultured in Dulbecco's MEM containing 10% fetal bovine […] supplemented with penicillin and streptomycin, at 37° C. in a humidity incubator with 5% CO2. RAW 264.7 cells were seeded and allowed to adhere for 24 hours then treated with NEMO^ActPep or NEMO^ActPep 6G at different concentrations 60 min before the LPS challenge (100 ng/ml). After 2 hours, nuclear and cytoplasmic extracts were collected. […]
as §3
It was then tested if the observed effect is universal across species and cell types. […] The effect of TAT-NEMO^ActPep on NF-κB DNA binding was also analyzed in MEF cells by EMSA.

For assay [4], the system named is canonical NF-κB signaling through IKK2 in RAW 264.7 murine macrophage cells. Nature of the assay: Western blot of canonical NF-κB signaling in LPS-treated RAW 264.7 cells. The conditions noted are these: 100 ng/mL LPS for 2 hours. Format: cell-based. The procedure:
as §1, §2, §4
It was then tested if the observed effect is universal across species and cell types. The effect of TAT-NEMO^ActPep was tested in RAW 264.7 murine macrophage cells treated with 100 ng/mL purified bacterial lipopolysaccharide (LPS) for 2 hours. Again, NF-κB DNA binding and ReIA subunit nuclear localization were both inhibited as were phosphorylation of the IKK2 activation loop and degradation of IκBα. […] The effect of TAT-NEMO^ActPep on NF-κB DNA binding was also analyzed in MEF cells by EMSA.

Assay [5] relates to non-canonical NF-κB signaling (IKK1, p100 processing). The assay can be described thus: Western blot of p100 processing after LTβR engagement (non-canonical NF-κB signaling). The conditions noted are these: increasing peptide concentrations; HeLa cells per FIG. 5C legend. Format: cell-based. Here is the method: as §2
Equivalent amounts of protein from cell extracts was separated by SDS-PAGE and transferred to polyvinylidene fluoride (PVDF) membranes (Millipore, Bedford, MA, USA). The membrane was blocked with 5% bovine serum albumin (BSA) for 1 hour at room temperature and then the membrane was incubated with the primary antibodies overnight at 4° C. […]

In assay [6] the test system is MAP kinases JNK, Erk2 and p38. The assay can be described thus: Western blot of MAP kinase phosphorylation in TNF-α-treated HeLa cells. Format: cell-based, human. The procedure: as §4
It was also tested if TAT-NEMO^ActPep has any effect on non-canonical NF-κB signaling. This alternative NF-κB signaling pathway is activated in response to stimulation of specific cytokine receptors and leads to activation of IKK1 and consequent processing of the p100 precursor to the mature NF-κB subunit p52 (30,31). […] To further investigate the possible involvement of TAT-NEMO^ActPep in other signaling pathways, the effect of the peptide on MAPK activation was tested by monitoring the phosphorylation status of JNK, Erk2, and p38 upon TNF-α treatment of HeLa cells. […]

Assay [7] concerns the target T1, IKK2 (purified recombinant; construct not stated for the experiment of FIG. 2D) (human, UniProt O14920 1-756, limits assumed).
T1 sequence (looked up): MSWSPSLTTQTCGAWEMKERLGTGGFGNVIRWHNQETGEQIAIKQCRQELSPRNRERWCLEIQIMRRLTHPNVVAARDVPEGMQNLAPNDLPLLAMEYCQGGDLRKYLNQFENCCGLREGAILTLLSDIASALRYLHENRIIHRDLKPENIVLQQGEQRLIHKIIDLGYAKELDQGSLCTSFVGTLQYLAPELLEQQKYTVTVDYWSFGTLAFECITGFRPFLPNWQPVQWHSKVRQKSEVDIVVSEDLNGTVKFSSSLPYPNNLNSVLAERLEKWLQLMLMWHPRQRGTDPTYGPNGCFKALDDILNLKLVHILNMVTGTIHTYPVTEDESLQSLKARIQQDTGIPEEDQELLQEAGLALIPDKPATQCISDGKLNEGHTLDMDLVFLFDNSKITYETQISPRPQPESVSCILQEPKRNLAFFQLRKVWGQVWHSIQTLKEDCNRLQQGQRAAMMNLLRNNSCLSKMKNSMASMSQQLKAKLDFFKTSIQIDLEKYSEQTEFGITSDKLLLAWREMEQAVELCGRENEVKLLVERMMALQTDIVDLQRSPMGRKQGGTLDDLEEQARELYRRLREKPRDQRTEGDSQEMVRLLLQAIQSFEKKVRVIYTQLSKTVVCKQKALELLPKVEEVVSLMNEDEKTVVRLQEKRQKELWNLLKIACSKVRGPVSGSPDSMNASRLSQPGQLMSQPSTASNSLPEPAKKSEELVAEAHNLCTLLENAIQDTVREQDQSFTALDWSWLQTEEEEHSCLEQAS
Nature of the assay: GST pull-down with purified proteins in the presence of Ub4, western blot.

The target of assay [8] is T2, full length human IKK2 (recombinant, N-terminal hexahistidine-TEV tag) (human, UniProt O14920 1-756).
T2 construct: mature; Produced in Sf9 insect cells with baculovirus; also called IKKβ; full length IKK2; not shown: TEV cleavage site and vector residues of pFastBacHTb
T2 sequence: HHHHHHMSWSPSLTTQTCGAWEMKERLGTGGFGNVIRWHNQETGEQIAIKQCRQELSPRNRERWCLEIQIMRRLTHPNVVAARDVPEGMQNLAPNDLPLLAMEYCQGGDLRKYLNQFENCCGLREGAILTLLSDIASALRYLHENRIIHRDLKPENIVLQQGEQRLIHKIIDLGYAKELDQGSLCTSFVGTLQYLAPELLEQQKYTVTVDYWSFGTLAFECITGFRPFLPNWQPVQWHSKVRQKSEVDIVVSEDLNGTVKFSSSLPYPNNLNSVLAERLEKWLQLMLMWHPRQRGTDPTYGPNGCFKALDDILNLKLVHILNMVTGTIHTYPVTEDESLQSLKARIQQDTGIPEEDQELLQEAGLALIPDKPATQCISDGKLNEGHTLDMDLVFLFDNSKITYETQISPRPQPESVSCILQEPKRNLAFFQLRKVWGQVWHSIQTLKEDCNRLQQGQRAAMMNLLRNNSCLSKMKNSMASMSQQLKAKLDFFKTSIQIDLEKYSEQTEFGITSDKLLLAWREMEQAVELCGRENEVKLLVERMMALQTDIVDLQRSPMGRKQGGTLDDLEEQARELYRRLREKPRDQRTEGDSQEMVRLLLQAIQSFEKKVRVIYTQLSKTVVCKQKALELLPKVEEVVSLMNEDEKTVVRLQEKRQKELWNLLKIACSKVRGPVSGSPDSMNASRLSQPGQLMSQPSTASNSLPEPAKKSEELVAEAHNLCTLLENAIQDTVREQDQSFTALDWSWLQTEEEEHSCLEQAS
Nature of the assay: GST pull-down with purified proteins, western blot.

Take “TAT-NEMO^ActPep 6G: control variant of TAT-NEMO^ActPep with NEMO residues 384-389 mutated to glycine (SEQ ID NO 3) (YGRKKRRQRRRGGLSSPLALPSGGGGGGEE) [reference compound]”: the “NF-κB-dependent shift of radiolabeled probe (EMSA)” value in assay [1] is given as “reduction was not observed; also recorded: does not”. Further, in assay [2], the “IKK2 activation loop phosphorylation (western blot)” value is on record as “showed no such effects”, the “IκBα degradation / proteolysis (western blot)” value is “showed no such effects” and the “NF-κB ReIA/p65 subunit nuclear localization (western blot)” value was “showed no such effects”. Further, in assay [3], the “NF-κB DNA binding” value was “did not show such effects”. Also, in assay [4], the “ReIA subunit nuclear localization (western blot)” value was “did not show such effects”, the “degradation of IκBα (western blot)” value is “did not show such effects” and the “phosphorylation of the IKK2 activation loop (western blot)” value is given as “did not show such effects”. In addition, in assay [5], the “processing of p100 in response to LTβR engagement (western blot)” value was “not observed any effect; also recorded: no change in the extent of p100 processing”. In addition, the “phosphorylation of JNK, Erk2 and p38 MAP kinases (western blot)” value in assay [6] is given as “Neither TAT-NEMO^ActPep nor TAT-NEMO^ActPep 6G influenced; also recorded: no effect”.

B1: GST-NEMO^241-419 6G (other, human, UniProt Q9Y6K9 241-419, looked up)
chain: YDNHIKSSVVGSERKRGMQLEDLKQQLQQAEEALVAKQEVIDKLKEEAEQHKIVMETVPVLKAQADIYKADFQAERQAREKLAEKKELLQEQLEQLQREYSKLKASCQESARIEDMRKRHVEVSQAPLPPAPAYLSSPLALPSGGGGGGEEPPDFCCPKCQYQAPDMDTLQIHVMECIE
notes: not shown: glutathione-S-transferase (GST) tag of vector pGEX4T-2, N-terminal
Consider B1, for which the binding result in assay [7] is reported as “no binding”.

B2: GST-NEMO^241-419 3G (other, human, UniProt Q9Y6K9 241-419, looked up)
chain: YDNHIKSSVVGSERKRGMQLEDLKQQLQQAEEALVAKQEVIDKLKEEAEQHKIVMETVPVLKAQADIYKADFQAERQAREKLAEKKELLQEQLEQLQREYSKLKASCQESARIEDMRKRHVEVSQAPLPPAPAYLSSPLALPSGGGSPPEEPPDFCCPKCQYQAPDMDTLQIHVMECIE
notes: as for B1
With B2, the binding result in assay [7] is recorded as “no binding”.

B3: GST-NEMO^111-419 (other, human, UniProt Q9Y6K9 111-419, looked up)
chain: KLDLKRQKEQALREVEHLKRCQQQMAEDKASVKAQVTSLLGELQESQSRLEAATKECQALEGRARAASEQARQLESEREALQQQHSVQVDQLRMQGQSVEAALRMERQAASEEKRKLAQLQVAYHQLFQEYDNHIKSSVVGSERKRGMQLEDLKQQLQQAEEALVAKQEVIDKLKEEAEQHKIVMETVPVLKAQADIYKADFQAERQAREKLAEKKELLQEQLEQLQREYSKLKASCQESARIEDMRKRHVEVSQAPLPPAPAYLSSPLALPSQRRSPPEEPPDFCCPKCQYQAPDMDTLQIHVMECIE
notes: as for B1
Regarding B3, the binding result in assay [8] is given as “no binding”.
